± gives the standard deviation of the averaged measurements.
What was measured:
Conditions in all cases: 72 h
U2OS [1] = assay: cell viability relative to DMSO; higher = less toxic
HepG2 [2] = assay: as above
Vero E6 [3] = assay: as above
Caco-2 [4] = assay: as above
Calu-3 [5] = assay: as above
U2OS [6] = assay: relative viability EC50 (midpoint between 100% and the lowest measured viability); higher = less toxic
HepG2 [7] = assay: as above
Vero E6 [8] = assay: as above
Caco-2 [9] = assay: as above
Calu-3 [10] = assay: as above
U2OS [11] = assay: drug sensitivity score (DSS) for viability; higher = more toxic; extreme values may be limits of the assay
HepG2 [12] = assay: as above
Vero E6 [13] = assay: as above
Caco-2 [14] = assay: as above
Calu-3 [15] = assay: as above

Structure (SMILES) | cell viability (U2OS [1]; 1 nM) | cell viability (U2OS [1]; 10 nM) | cell viability (U2OS [1]; 100 nM) | cell viability (U2OS [1]; 1000 nM) | cell viability (U2OS [1]; 10000 nM) | cell viability (HepG2 [2]; 1 nM) | cell viability (HepG2 [2]; 10 nM) | cell viability (HepG2 [2]; 100 nM) | cell viability (HepG2 [2]; 1000 nM) | cell viability (HepG2 [2]; 10000 nM) | cell viability (Vero E6 [3]; 1 nM) | cell viability (Vero E6 [3]; 10 nM) | cell viability (Vero E6 [3]; 100 nM) | cell viability (Vero E6 [3]; 1000 nM) | cell viability (Vero E6 [3]; 10000 nM) | cell viability (Caco-2 [4]; 1 nM) | cell viability (Caco-2 [4]; 10 nM) | cell viability (Caco-2 [4]; 100 nM) | cell viability (Caco-2 [4]; 1000 nM) | cell viability (Caco-2 [4]; 10000 nM) | cell viability (Calu-3 [5]; 1 nM) | cell viability (Calu-3 [5]; 10 nM) | cell viability (Calu-3 [5]; 100 nM) | cell viability (Calu-3 [5]; 1000 nM) | cell viability (Calu-3 [5]; 10000 nM) | relative viability EC50 (U2OS [6]) | relative viability EC50 (HepG2 [7]) | relative viability EC50 (Vero E6 [8]) | relative viability EC50 (Caco-2 [9]) | relative viability EC50 (Calu-3 [10]) | drug sensitivity score (U2OS [11]) | drug sensitivity score (HepG2 [12]) | drug sensitivity score (Vero E6 [13]) | drug sensitivity score (Caco-2 [14]) | drug sensitivity score (Calu-3 [15])
Cc1ccc(-n2sc(=O)n(Cc3ccc(F)cc3)c2=O)cc1 | 97.9% | 98.7% | 99.6% | 96.1% | 108% | 89.2% | 107% | 95.9% | 96.1% | 96.1% | 96.4% | 97.7% | 97.1% | 99.1% | 93.5% | 99.1% | 97.7% | 98.4% | 100% | 95.9% | 104% | 83.1% | 110% | 98.9% | 94.3% | > 10 µM | > 10 µM | > 10 µM | > 10 µM | > 10 µM | 0 | 0 | 0 | 0 | 0
Nc1ncc(Cc2ccc(Br)cc2)s1 | 93.5% | 102% | 94.9% | 101% | 102% | 98% | 88.6% | 115% | 96.3% | 99.9% | 99.9% | 94% | 100% | 92.2% | 107% | 97.3% | 95.1% | 85.2% | 99.3% | 96.7% | 95.6% | 91.8% | 103% | 94.3% | 119% | > 10 µM | > 10 µM | > 10 µM | > 10 µM | > 10 µM | 0 | 0 | 0 | 0 | 0
O=C(NCCCN1CCCCCC1)C(c1ccccc1)C1CCCCC1 (centres undefined) | 104% | 101% | 101% | 106% | 95.7% | 107% | 107% | 100% | 89% | 84.7% | 95.8% | 96.1% | 96.5% | 99.6% | 94.9% | 101% | 101% | 105% | 107% | 95% | 111% | 94.1% | 102% | 104% | 98.8% | > 10 µM | > 10 µM | > 10 µM | > 10 µM | > 10 µM | 0 | 1 | 0 | 0 | 0
O=C(Nc1ccc(Cl)nc1)c1ccc(Cl)cc1 | 95.6% | 94.3% | 101% | 93.2% | 95.7% | 97.5% | 109% | 106% | 103% | 110% | 95.4% | 98.7% | 95.9% | 94.1% | 100% | 103% | 90.2% | 97.8% | 98.8% | 102% | 94.9% | 90.6% | 96.6% | 94.2% | 102% | > 10 µM | > 10 µM | > 10 µM | > 10 µM | > 10 µM | 0 | 0 | 0 | 0 | 0
O=C(Nc1ccccc1)N[C@H]1C[C@H](C(=O)O)Nc2cc(Cl)cc(Cl)c21 | 98% | 104% | 103% | 105% | 100% | 96.4% | 103% | 96.3% | 84.6% | 104% | 106% | 100% | 100% | 96.7% | 99.8% | 98.1% | 104% | 104% | 104% | 92.5% | 105% | 89.8% | 108% | 95.8% | 97.1% | > 10 µM | > 10 µM | > 10 µM | > 10 µM | > 10 µM | 0 | 0 | 0 | 0 | 0
OC(CCCN1CCN(c2ncc(F)cn2)CC1)c1ccc(F)cc1 (centres undefined) | – | – | – | – | – | 95.8% | 100% | 98.3% | 96% | 97.5% | 101% | 98.1% | 94.9% | 99% | 95.4% | 98.4% | 99.1% | 101% | 94.2% | 95.7% | 107% | 99.7% | 102% | 104% | 94.7% | – | > 10 µM | > 10 µM | > 10 µM | > 10 µM | – | 0 | 0 | 0 | 0
O=C1CS[C@@H](c2ccccc2Cl)c2cc(Cl)ccc2N1 (racemic) | 106% | 104% | 94.4% | 101% | 102% | 100% | 98.7% | 96.4% | 110% | 102% | 96.6% | 97.6% | 99.1% | 97.8% | 104% | 92.3% | 101% | 92.2% | 98.6% | 90.1% | 94.5% | 100% | 96.7% | 100% | 105% | > 10 µM | > 10 µM | > 10 µM | > 10 µM | > 10 µM | 0 | 0 | 0 | 0 | 0
C[C@@H](CN(C)C)CN1c2ccccc2Sc2ccccc21 (racemic) [alimemazine] | 103% | 95% | 103% | 97% | 94.3% | 105% | 101% | 104% | 104% | 70.9% | 100% | 98.1% | 99.4% | 88.9% | 77.2% | 112% | 100% | 97.8% | 108% | 80.4% | 97.5% | 94.8% | 101% | 105% | 83.4% | > 10 µM | – | > 10 µM | > 10 µM | > 10 µM | 0 | 1 | 1.9 | 0.3 | 0.2
C#C[C@]1(O)CC[C@H]2[C@@H]3CCC4=CC(=O)CC[C@@H]4[C@H]3CC[C@@]21C [Norethindrone (Norethisterone)] | – | – | – | – | – | 103% | 89.5% | 94.1% | 100% | 114% | 98.4% | 97.4% | 94.6% | 93.6% | 109% | 94% | 103% | 97% | 101% | 116% | 103% | 105% | 93.9% | 110% | 99.9% | – | > 10 µM | > 10 µM | > 10 µM | > 10 µM | – | 0 | 0 | 0 | 0
CN(C)c1ccc(/C=C2\C(=O)Nc3ccccc32)cc1 [SU4312] | 99.3% | 105% | 94.8% | 96.9% | 90% | 96% | 92.4% | 95.1% | 69.5% | 89.7% | 106% | 99.6% | 103% | 103% | 89.3% | 96.3% | 106% | 97.5% | 90.6% | 79.6% | 97.7% | 94.3% | 96.4% | 88.4% | 91.8% | > 10 µM | – | > 10 µM | > 10 µM | > 10 µM | 0 | 2 | 0 | 1.2 | 0
C[C@]12N[C@H](Cc3ccccc31)c1ccccc12 [dizocilpine-(-)] | 98.1 ± 5.1% | 104 ± 3.2% | 97.4 ± 1.7% | 100.7 ± 0.92% | 95.4 ± 1.4% | 99.4 ± 0.28% | 97.7 ± 4.1% | 102 ± 9.9% | 95 ± 4.2% | 73.8 ± 28% | 95.8% | 97.2% | 101% | 93% | 97% | 98.7 ± 0.42% | 94.5 ± 1.2% | 97.7 ± 1.8% | 102 ± 6.2% | 99.5 ± 5% | 97.8 ± 11% | 96.6 ± 3% | 101 ± 7.7% | 96.8 ± 6.1% | 98.5 ± 11% | > 10 µM | – | > 10 µM | > 10 µM | > 10 µM | 0 | 1.85 ± 2.6 | 0 | 0 | 0
CCOC(=O)c1ccc(OC(=O)CCCCCNC(=N)N)cc1 [gabexate] | – | – | – | – | – | 97.1% | 115% | 96.9% | 95.6% | 103% | 101% | 104% | 98% | 98.4% | 100% | 94.2% | 95.6% | 99.2% | 95.2% | 89.4% | 88.1% | 95.9% | 84.8% | 86.9% | 87.1% | – | > 10 µM | > 10 µM | > 10 µM | > 10 µM | – | 0 | 0 | 0 | 1.4
CC(C)(C)NCC(O)c1ccccc1Cl (centres undefined) [tulobuterol] | 99.7% | 95.5% | 102% | 101% | 98.6% | – | – | – | – | – | 96.9% | 98.2% | 99.7% | 96.2% | 87% | 93.7% | 89.8% | 88.1% | 79.8% | 95.6% | 94.6% | 91.1% | 99.4% | 111% | 88.4% | > 10 µM | – | > 10 µM | > 10 µM | > 10 µM | 0 | – | 0.3 | 0 | 0

From the supplement of paper PMC13380429
